Patent US9963462B2 (priority 2015, dated 2018)

How the values were obtained:
[1] = test system: BH4 levels in SK-N-BE (2) cells; assay: SKN-N-BE (2) cellular assay, BH4 levels by LC-MS; format: cell-based; conditions: Homo sapiens, SKNBE2, read-out: SK-N-BE(2) IC50, SK-N-BE (2) cells, BH4 levels by LC-MS
[2] = target: SNAP-hSPR (sepiapterin reductase, SPR) (Homo sapiens, UniProt P35270); assay: biochemical; format: binding; conditions: terbium labelled SNAP-hSPR / SSZ labelled SNAP-EGFP; read-out: hTR-FRET IC50
Sequence of SNAP-hSPR (sepiapterin reductase, SPR) (P35270 whole entry): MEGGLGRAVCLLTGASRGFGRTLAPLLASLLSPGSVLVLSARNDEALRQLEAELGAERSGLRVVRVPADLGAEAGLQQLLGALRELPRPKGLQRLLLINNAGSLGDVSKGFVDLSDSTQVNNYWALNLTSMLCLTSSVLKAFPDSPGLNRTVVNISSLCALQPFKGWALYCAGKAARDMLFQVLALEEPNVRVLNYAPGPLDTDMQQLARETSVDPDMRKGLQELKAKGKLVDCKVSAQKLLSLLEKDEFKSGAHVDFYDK

## Cc1c(C(=O)N2CCN(c3nccs3)CC2)cnn1-c1nn2cccc2c(=O)[nH]1 [Q-0907]
[1]
  IC50: 400 nM

## Cc1c(C(=O)N2CCC3(CC2)OCc2ccccc23)cnn1-c1nn2cccc2c(=O)[nH]1 [Q-0909]
[1]
  IC50: 100 nM

## Cc1c(C(=O)N2CCCC3C2CCCN3C(=O)OC(C)(C)C)cnn1-c1nn2cccc2c(=O)[nH]1 (stereo not drawn) [Q-0912]
[1]
  IC50: 900 nM

## Cc1c(C(=O)N2CCC3CN(C(=O)OC(C)(C)C)CC32)cnn1-c1nn2cccc2c(=O)[nH]1 (stereo not drawn) [Q-0914]
[1]
  IC50: 600 nM

## Cc1c(C(=O)N2CCN(C(=O)OC(C)(C)C)CC2(C)C)cnn1-c1nn2cccc2c(=O)[nH]1 [Q-0916]
[1]
  IC50: 700 nM

## Cc1c(C(=O)N2CCC(n3cncn3)CC2)cnn1-c1nn2cccc2c(=O)[nH]1 [Q-0919]
[1]
  IC50: 1700 nM

## Cc1c(C(=O)N2CCCCC2C(F)(F)F)cnn1-c1nn2cccc2c(=O)[nH]1 (stereo not drawn) [Q-0920]
[1]
  IC50: 500 nM

## Cc1c(C(=O)N2CCC3(CCOC3)C2)cnn1-c1nn2cccc2c(=O)[nH]1 (stereo not drawn) [Q-0922]
[1]
  IC50: 1000 nM

## Cc1c(C(=O)N2CCCC(C)(C#N)C2)cnn1-c1nn2cccc2c(=O)[nH]1 (stereo not drawn) [Q-0923]
[1]
  IC50: 1300 nM

## CCN(C)C1CCN(C(=O)c2cnn(-c3nn4cccc4c(=O)[nH]3)c2C)CC1 [Q-0925]
[1]
  IC50: 500 nM

## Cc1c(C(=O)N2CC3(CCN(C(=O)OC(C)(C)C)CC3)C2)cnn1-c1nc2c(c(=O)[nH]1)CCC2 [Q-0928]
[1]
  IC50: 200 nM

## Cc1c(C(=O)N2CC[C@H]3CN(C(=O)OC(C)(C)C)[C@H]3C2)cnn1-c1nn2cccc2c(=O)[nH]1 [Q-0929]
[1]
  IC50: 2000 nM

## Cc1c(C(=O)N2CC3(CCCC3)C2)cnn1-c1nc2c(c(=O)[nH]1)CCC2 [Q-0931]
[1]
  IC50: 200 nM

## Cc1c(C(=O)N2CCC3(CC2)CC3c2noc(-c3cccnc3)n2)cnn1-c1nn2cccc2c(=O)[nH]1 (stereo not drawn) [Q-0932]
[1]
  IC50: 700 nM

## Cc1c(C(=O)N2CCN(C3CC4CCC3C4)CC2)cnn1-c1nn2cccc2c(=O)[nH]1 (stereo not drawn) [Q-0933]
[1]
  IC50: 200 nM

## Cc1c(C(=O)N2CC3CCCC(C3)C2)cnn1-c1nn2cccc2c(=O)[nH]1 [Q-0934]
[1]
  IC50: 300 nM

## Cc1c(C(=O)N2CCC(N3CCCC3=O)CC2)cnn1-c1nn2cccc2c(=O)[nH]1 [Q-0935]
[1]
  IC50: 1600 nM

## Cc1c(C(=O)N2CCN(c3nc4ccccc4s3)CC2)cnn1-c1nn2cccc2c(=O)[nH]1 [Q-0936]
[1]
  IC50: 200 nM

## COC1(C2CC2)CCN(C(=O)c2cnn(-c3nn4cccc4c(=O)[nH]3)c2C)CC1 [Q-0938]
[1]
  IC50: 100 nM

## Cc1c(C(=O)N2CCC(c3nc(-c4ccccc4)cs3)CC2)cnn1-c1nn2cccc2c(=O)[nH]1 [Q-0939]
[1]
  IC50: 83 nM

## CC(=O)Nc1ccc(S(=O)(=O)N2CCN(C(=O)c3cnn(-c4nn5cccc5c(=O)[nH]4)c3C)CC2)cc1 [Q-1833]
[2]
  IC50: 1 nM

## Cc1c(C(=O)N2CCN(S(=O)(=O)c3ccc(C(F)(F)F)cc3)CC2)cnn1-c1nn2cccc2c(=O)[nH]1 [Q-1834]
[2]
  IC50: 1 nM

## Cc1c(C(=O)N2CCN(S(=O)(=O)c3cc(C(F)(F)F)cc(C(F)(F)F)c3)CC2)cnn1-c1nn2cccc2c(=O)[nH]1 [Q-1835]
[2]
  IC50: 4 nM

## Cc1c(C(=O)N2CCN(S(=O)(=O)c3ccc(Br)cc3)CC2)cnn1-c1nn2cccc2c(=O)[nH]1 [Q-1837]
[2]
  IC50: 1 nM

## COc1ccc(OC)c(S(=O)(=O)N2CCN(C(=O)c3cnn(-c4nn5cccc5c(=O)[nH]4)c3C)CC2)c1 [Q-1839]
[2]
  IC50: 2 nM

## Cc1c(C(=O)N2CCN(S(=O)(=O)c3ccc(Cl)c(C(F)(F)F)c3)CC2)cnn1-c1nn2cccc2c(=O)[nH]1 [Q-1840]
[2]
  IC50: 3 nM

## Cc1c(C(=O)N2CCN(S(=O)(=O)c3cccc(C(=O)O)c3)CC2)cnn1-c1nn2cccc2c(=O)[nH]1 [Q-1845]
[2]
  IC50: 2 nM

## Cc1c(C(=O)N2CCN(S(=O)(=O)c3cnc4ccccc4c3)CC2)cnn1-c1nn2cccc2c(=O)[nH]1 [Q-1864]
[2]
  IC50: 4 nM

## Cc1c(C(=O)N2CCN(S(=O)(=O)c3ccc(Cl)c4nonc34)CC2)cnn1-c1nn2cccc2c(=O)[nH]1 [Q-1885]
[2]
  IC50: 10 nM

## Cc1c(C(=O)N2CCC(S(=O)(=O)c3ccccc3)CC2)cnn1-c1nn2cccc2c(=O)[nH]1 [Q-1984]
[2]
  IC50: 1 nM

## Cc1c(C(=O)N2CCC(S(C)(=O)=O)CC2)cnn1-c1nn2cccc2c(=O)[nH]1 [Q-1985]
[2]
  IC50: 2 nM

## Cc1c(C(=O)N2CCC(S(=O)(=O)N3CCCC3)CC2)cnn1-c1nn2cccc2c(=O)[nH]1 [Q-2007]
[2]
  IC50: 1 nM

## Cc1c(C(=O)N2CCc3[nH]nc(C(F)(F)F)c3C2)cnn1-c1nn2cccc2c(=O)[nH]1 [Q-2031]
[2]
  IC50: 3 nM

## Cc1c(C(=O)N2CCN(C(=O)c3ccco3)CC2)cnn1-c1nn2cccc2c(=O)[nH]1 [Q-2032]
[2]
  IC50: 6 nM

## Cc1c(C(=O)N2CCN(C3COC3)CC2)cnn1-c1nn2cccc2c(=O)[nH]1 [Q-2041]
[2]
  IC50: 3 nM

## Cc1c(C(=O)N2CC(c3ccncc3F)C2)cnn1-c1nn2cccc2c(=O)[nH]1 [Q-2043]
[2]
  IC50: 5 nM

## Cc1c(C(=O)N2CCc3c(c(C(F)(F)F)nn3C)C2)cnn1-c1nn2cccc2c(=O)[nH]1 [Q-2048]
[2]
  IC50: 4 nM

## Cc1c(C(=O)N2CC[C@@H]2c2ccc(F)nc2)cnn1-c1nn2cccc2c(=O)[nH]1 [Q-2054]
[2]
  IC50: 4 nM

## Cc1c(C(=O)N2CC[C@H]2c2ccc(F)nc2)cnn1-c1nn2cccc2c(=O)[nH]1 [Q-2055]
[2]
  IC50: 7 nM
